Experimental data reported in patent publication US8999966B2, “Compounds that are ERK inhibitors” (Merck Sharp & Dohme Corp., priority 2010, dated 2015).

Target: fully phosphorylated, active Mouse ERK2 protein (Mus musculus, UniProt P63085)
Assay: Active ERK2 assay (AERK2), IMAP format
Assay type: biochemical
Conditions: activated ERK2, IMAP fluorescence polarization, 30 μM ATP
Experimental: 14 μl of kinase buffer (10 mM Tris.HCl pH 7.2, 10 mM MgCl2, 0.01% Tween-20, 1 mM DTT) containing 0.4 ng unphosphorylated Mouse ERK2 protein can be added to each well of a black 384-well assay plate. […] DMSO concentration during initial incubation is 6.7%. ERK2 activity can be determined to be insensitive to DMSO concentrations up to 20%. ERK2 can then be activated and it's kinase activity can be measured by the addition of 10 μl kinase buffer with the following components (final concentration per reaction): 2 ng active (phosphorylated) human MEK1 protein and 4 μM (total) ERK2 IMAP substrate peptides (3.9 μM unlabeled IPTTPITTTYFFFK-CONH2 and 100 nM IPTTPITTTYFFFK(5-carboxyfluorescein)-CONH2) and 30 μM ATP. DMSO concentration during ERK activation can be 4%. After one hour, reactions can be terminated by addition of 60 μl IMAP detections beads in binding buffer (Molecular Devices). Binding can be allowed to equilibrate for 30 minutes before reading the plate on an LJL Analyst Fluorescence Polarization plate reader. […] Active compounds can be reconfirmed in an independent assay.
Activated ERK2 activity was also determined in the IMAP assay format using the procedure outlined above. 1 μl of 25× compound was added to 14 μl of kinase buffer containing 0.25 ng fully phosphorylated, active Mouse ERK2 protein. Following a 30 minute incubation, the reactions were initiated by addition of 10 μl of kinase buffer containing 1 μM ERK2 IMAP substrate peptide (0.9 μM unlabeled IPTTPITTTYFFFK-CONH2 and 100 nM IPTTPITTTYFFFK(5-carboxyfluorescein)-CONH2) and 30 μM ATP. Reactions proceeded for 30 minutes before termination by addition of 60 μl IMAP detection beads in binding buffer. Plates were read as above after 30 minute binding equilibration. Active compounds were reconfirmed in an independent assay.

Chain of fully phosphorylated, active Mouse ERK2 protein (P63085 whole entry): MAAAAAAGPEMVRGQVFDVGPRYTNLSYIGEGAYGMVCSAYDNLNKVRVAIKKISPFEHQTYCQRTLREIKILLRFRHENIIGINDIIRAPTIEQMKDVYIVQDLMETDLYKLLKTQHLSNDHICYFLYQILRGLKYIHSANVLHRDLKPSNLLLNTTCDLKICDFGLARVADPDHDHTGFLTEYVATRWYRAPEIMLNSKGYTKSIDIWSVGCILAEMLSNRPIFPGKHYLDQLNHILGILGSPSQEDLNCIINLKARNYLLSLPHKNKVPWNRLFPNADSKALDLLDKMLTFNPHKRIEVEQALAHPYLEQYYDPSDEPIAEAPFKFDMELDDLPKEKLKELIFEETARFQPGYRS

SMILES | IC50 [nM]
Fc1ccccc1CN1CCC[C@@H](c2nnc(-c3ccc4[nH]nc(-c5ccnc(Cl)c5)c4c3)o2)C1 [Example 353, 3-(2-CHLORO-4-PYRIDINYL)- 5-[5-[1-[(2- FLUOROPHENYL)METHYL]- 3(R)-PIPERIDINYL]-1,3,4- OXADIAZOL-2-YL]-1H- INDAZOLE] | ≥ 504
Clc1cc(-c2n[nH]c3ccc(-c4nnc([C@@H]5CCCN(Cc6csc7ccccc67)C5)o4)cc23)ccn1 [Example 354, 5-[5-[1-(BENZO[b]THIEN-3- YLMETHYL)-3(R)- PIPERIDINYL]-1,3,4- OXADIAZOL-2-YL]-3-(2- CHLORO-4-PYRIDINYL)-1H- INDAZOLE] | > 1000
Clc1cc(-c2n[nH]c3ccc(-c4nnc([C@@H]5CCCN(Cc6cc7ccccc7o6)C5)o4)cc23)ccn1 [Example 357, 5-[5-[1-(2- BENZOFURANYLMETHYL)- 3(R)-PIPERIDINYL]-1,3,4- OXADIAZOL-2-YL]-3-(2- CHLORO-4-PYRIDINYL)-1H- INDAZOLE] | ≥ 504
Fc1cc(CN2CCC[C@@H](c3nnc(-c4ccc5[nH]nc(-c6ccnc(Cl)c6)c5c4)o3)C2)c(Cl)cc1Cl [Example 358, 3-(2-CHLORO-4-PYRIDINYL)- 5-[5-[1-[(2,4-DICHLORO-5- FLUOROPHENYL)METHYL]- 3(R)-PIPERIDINYL]-1,3,4- OXADIAZOL-2-YL]-1H- INDAZOLE] | ≥ 504

Results, then the compound that gave them:

IC50 [nM] | SMILES
≥ 504 | Clc1cc(-c2n[nH]c3ccc(-c4nnc([C@@H]5CCCN(Cc6cc7ccccc7s6)C5)o4)cc23)ccn1 [Example 359, 5-[5-[1-(BENZO[b]THIEN-2- YLMETHYL)-3(R)- PIPERIDINYL]-1,3,4- OXADIAZOL-2-YL]-3-(2- CHLORO-4-PYRIDINYL)-1H- INDAZOLE]
≥ 504 | Clc1cc(-c2n[nH]c3ccc(-c4nnc([C@@H]5CCCN(Cc6ccncn6)C5)o4)cc23)ccn1 [Example 360, 3-(2-CHLORO-4-PYRIDINYL)- 5-[5-[1-(4- PYRIMIDINYLMETHYL)- 3(R)-PIPERIDINYL]-1,3,4- OXADIAZOL-2-YL]-1H- INDAZOLE]
≥ 504 | COc1cccc(CN2CCC[C@@H](c3nnc(-c4ccc5[nH]nc(-c6ccnc(Cl)c6)c5c4)o3)C2)n1 [Example 361, 3-(2-CHLORO-4-PYRIDINYL)- 5-[5-[1-[(6-METHOXY-2- PYRIDINYL)METHYL]-3(R)- PIPERIDINYL]-1,3,4- OXADIAZOL-2-YL]-1H- INDAZOLE]
≥ 504 | Clc1cc(-c2n[nH]c3ccc(-c4nnc([C@@H]5CCCN(CC6CCCCC6)C5)o4)cc23)ccn1 [Example 362, 3-(2-CHLORO-4-PYRIDINYL)- 5-[5-[1- (CYCLOHEXYLMETHYL)- 3(R)-PIPERIDINYL]-1,3,4- OXADIAZOL-2-YL]-1H- INDAZOLE]
> 1000 | Fc1cccc(F)c1CN1CCCC(c2ccn(-c3ccc4[nH]nc(-c5ccncc5)c4c3)n2)C1 (stereo not shown) [Example 367, 5-[3-[1-[(2,6- DIFLUOROPHENYL)METHYL]- 3-PIPERIDINYL]-1H- PYRAZOL-1-YL]-3-(4- PYRIDINYL)-1H-INDAZOLE]
> 1000 | COc1cccc(F)c1CN1CCCC(c2ccn(-c3ccc4[nH]nc(-c5ccncc5)c4c3)n2)C1 (stereo not shown) [Example 368, 5-[3-[1-[(2-FLUORO-6- METHOXYPHENYL)METHYL]- 3-PIPERIDINYL]-1H- PYRAZOL-1-YL]-3-(4- PYRIDINYL)-1H-INDAZOLE]
